Experimental findings from patent US20250304537A1 (Repare Therapeutics Inc., priority 2022, published 2025) are described below.

In the assay the test system is PKMYT1 (CDK1 pThr14) in FUOV1 cells. As to the kind of experiment: PKMYT1 cell-based activity assay, CDK1 pThr14 AlphaLISA in FUOV1 cells. The settings on record: 2 h, 2 h compound incubation, read-out: FUOV-1 CDK1 pThr14 IC50. The method, then:
To determine compound IC50 (PKMYT1 cell-based activity assay, CDK1 pThr14 AlphaLISA), FUOV1 cells were plated into a 96-well TC-treated culture plate at 50000 cells/well in a final volume of 100 μL of media. The plates were then allowed to equilibrate in a biological safety cabinet for 30 minutes before being placed in a humidified incubator at 37 C and 5% CO2 overnight. The next day, 2 μL of PKMYT1 inhibitors or DMSO were diluted in 400 μL of warmed culture media in a 96-well block using a Biomek FX liquid handler. Compounds were mixed in media and then 25 μL was dispensed into each well of the 96-well cell plate. Plates were centrifuged at 300 g for 10 seconds and then placed in the incubator for 2 hours. After the 2-hour incubation with compound, media was removed via aspiration using a multichannel pipette. 30 μL of 1× AlphaLISA lysis buffer (Perkin Elmer) supplemented with protease and phosphatase inhibitors as well as 1 mM PMSF, was added to each well. Plates were rotated at 500 g for 20 minutes to facilitate lysis. Plates were then sealed with aluminum foil and frozen at −80° C. for at least 1 hour. Lysates were thawed at 37° C. for 10 minutes, then 10 μL of each lysate was transferred in duplicate to a white 384-well assay plate. Antibody mixture was prepared in 1× AlphaLISA assay buffer (Perkin Elmer) containing antibodies (5 nM final concentration for rabbit pThr14-CDK1 from Abcam #ab58509 and mouse total CDK1 from ThermoFisher Scientific #33-1800). 5 μL of antibody mixture was added to each well of the assay plate. The assay plate was sealed and stored at 4° C. overnight. The next day, AlphaLISA bead mixture (Perkin Elmer) was prepared in 1× AlphaLISA assay buffer. Anti-rabbit IgG Acceptor (Perkin Elmer #AL104C) and anti-mouse IgG Donor beads (Perkin Elmer #AS104D) were prepared to a concentration of 80 μg/ml in assay buffer. 5 μL of bead mixture was added to each well of the assay plate (20 μg/ml final concentration for each bead). The plate was protected from light and incubated for 2 hours at room temperature. After a 2-hour incubation with beads, the plate was read using the Perkin Elmer EnVision Multimode plate reader with excitation at 680 nm and emission at 615 nm.
In the case of `Cc1ccc2[nH]ncc2c1-c1nc(-c2ccc(F)cc2Nc2ncccc2F)nc(C(N)=O)c1N` [Compound 527], the IC50 stood at 11 nM.
With `Cc1ccc2[nH]ncc2c1-c1nc(-c2ccc(F)cc2NC(=O)C2(C)CCCO2)nc(C(N)=O)c1N` (stereo not drawn) [Compound 528], the half-maximal inhibitory concentration (IC50) came out at 118 nM.
For the compound `Cc1ccc2[nH]ncc2c1-c1nc(-c2cc(F)c(F)cc2NC2CCS(=O)(=O)CC2)nc(C(N)=O)c1N` [Compound 529], the IC50 stood at 251 nM.
Regarding `Cc1ccc2[nH]ncc2c1-c1nc(-c2cc(F)ccc2NS(=O)(=O)C(C)C)nc(C(N)=O)c1N` [Compound 530], the IC50 amounted to 59 nM.
Regarding `Cc1ccc2[nH]ncc2c1-c1nc(-c2cc(F)ccc2NS(=O)(=O)C2CCCC2)nc(C(N)=O)c1N` [Compound 531], the IC50 is 918 nM.
Turning to `Cc1ccc2[nH]ncc2c1-c1nc(-c2ccc(F)cc2Nc2nccc(C#N)n2)nc(C(N)=O)c1N` [Compound 532], the half-inhibitory concentration (IC50) worked out at 21 nM.
In the case of `Cc1ccc2[nH]ncc2c1-c1nc(-c2ccc(F)cc2Nc2ccncc2)nc(C(N)=O)c1N` [Compound 533], the IC50 came out at 3 nM.
On to `Cc1ccnc(Nc2cc(F)ccc2-c2nc(C(N)=O)c(N)c(-c3c(C)ccc4[nH]ncc34)n2)n1` [Compound 534], for which the IC50 stood at 87 nM.
For the compound `Cc1ccc2[nH]ncc2c1-c1nc(-c2ccc(F)cc2Nc2ncc(C#N)cn2)nc(C(N)=O)c1N` [Compound 535], the 50% inhibitory concentration (IC50) is 151 nM.
In the case of `COCCCNc1ncccc1-c1nc(C(N)=O)c(N)c(-c2c(C)ccc3[nH]ncc23)n1` [Compound 537], the IC50 was 256 nM.
For the compound `Cc1ccc2[nH]ncc2c1-c1nc(-c2ncccc2NCC(F)(F)F)nc(C(N)=O)c1N` [Compound 538], the 50% inhibitory concentration (IC50) stood at 33 nM.
Next, `Cc1ccc2[nH]ncc2c1-c1nc(-c2ccc(F)cc2Nc2nnccc2C#N)nc(C(N)=O)c1N` [Compound 539]: 20 nM; `Cc1ccnnc1Nc1cc(F)ccc1-c1nc(C(N)=O)c(N)c(-c2c(C)ccc3[nH]ncc23)n1` [Compound 540]: 9 nM; `Cc1ccc2[nH]ncc2c1-c1nc(-c2ccc(F)cc2Nc2cncnc2)nc(C(N)=O)c1N` [Compound 541, 5-amino-2-(4-fluoro-2-(pyrimidin-5-ylamino)phenyl)-6-(5-methyl-1H-indazol-4-yl)pyrimidine-4-carboxamide]: 47 nM.
For `Cc1ccc2[nH]ncc2c1-c1nc(-c2cccnc2NCCC#N)nc(C(N)=O)c1N` [Compound 542], the half-inhibitory concentration (IC50) came out at 77 nM.
Regarding `Cc1ccc2[nH]ncc2c1-c1nc(-c2cccnc2NCCS(C)(=O)=O)nc(C(N)=O)c1N` [Compound 543], the IC50 came to 931 nM.
In the case of `Cc1ccc2[nH]ncc2c1-c1nc(-c2cccnc2NC2(C)CCOCC2)nc(C(N)=O)c1N` [Compound 544] it was 6 nM.
In the case of `Cc1ccc2[nH]ncc2c1-c1nc(-c2cccnc2N[C@H]2[C@@H]3COC[C@@H]32)nc(C(N)=O)c1N` [Compound 545] it was 43 nM; in that of `Cc1ccc2[nH]ncc2c1-c1nc(-c2cccnc2N[C@H]2CCCOC2)nc(C(N)=O)c1N` [Compound 546], 12 nM; in that of `Cc1ccc2[nH]ncc2c1-c1nc(-c2cccnc2N[C@@H]2CCOC2)nc(C(N)=O)c1N` [Compound 547], 50 nM.
Consider `CO[C@H]1C[C@@H](Nc2ncccc2-c2nc(C(N)=O)c(N)c(-c3c(C)ccc4[nH]ncc34)n2)C1` [Compound 548], for which the IC50 amounted to 227 nM.
`Cc1ccc2[nH]ncc2c1-c1nc(-c2cccnc2NC2CCN(C)C(=O)C2)nc(C(N)=O)c1N` (stereo not drawn) [Compound 549]: the 50% inhibitory concentration (IC50) worked out at 1320 nM.
As to `Cc1ccc2[nH]ncc2c1-c1nc(-c2cccnc2N[C@H]2CCOC2)nc(C(N)=O)c1N` [Compound 550], the 50% inhibitory concentration (IC50) came out at 7 nM.
Regarding `CO[C@H]1C[C@H](Nc2ncccc2-c2nc(C(N)=O)c(N)c(-c3c(C)ccc4[nH]ncc34)n2)C1` [Compound 551], the IC50 was 151 nM.
In the case of `Cc1ccc2[nH]ncc2c1-c1nc(-c2cccnc2NC2CC(=O)N(C)C2)nc(C(N)=O)c1N` (stereo not drawn) [Compound 552] it was 245 nM; in that of `Cc1ccc2[nH]ncc2c1-c1nc(-c2ccc(F)cc2Nc2ccnnc2)nc(C(N)=O)c1N` [Compound 553], 183 nM.
As for `NC(=O)c1nc(-c2cc(F)ccc2Nc2ncc(F)cn2)nc(-c2c(Cl)ccc3[nH]ncc23)c1N` [Compound 554], the half-maximal inhibitory concentration (IC50) was determined as 138 nM.
On to `Cc1ccc2[nH]ncc2c1-c1nc(-c2nccnc2NCC(F)(F)F)nc(C(N)=O)c1N` [Compound 555, 5-amino-6-(5-methyl-1H-indazol-4-yl)-2-(3-((2,2,2-trifluoroethyl)amino)pyrazin-2-yl)pyrimidine-4-carboxamide], for which the IC50 stood at 219 nM.
As to `COCCOc1ccc2oc3c(C(N)=O)c(N)c(-c4c(C)ccc5[nH]ncc45)cc3c2n1` [Compound 556], the IC50 was determined as 132 nM.
Consider `Cc1ccc2[nH]ncc2c1-c1cc2c(oc3ccc(F)nc32)c(C(N)=O)c1N` [Compound 557], for which the half-inhibitory concentration (IC50) was found to be 416 nM.
`COCCNc1ccc2oc3c(C(N)=O)c(N)c(-c4c(C)ccc5[nH]ncc45)cc3c2n1` [Compound 558, 7-amino-2-((2-methoxyethyl)amino)-8-(5-methyl-1H-indazol-4-yl)benzofuro[3,2-b]pyridine-6-carboxamide]: the IC50 came to 95 nM.
Turning to `Cc1ccc2[nH]ncc2c1-c1cc2c(oc3ccc(OCC(C)(C)C#N)nc32)c(C(N)=O)c1N` [Compound 559], the IC50 stood at 1290 nM.
In the case of `Cc1ccc2[nH]ncc2c1-c1cc2c(oc3ccc(OCC(F)(F)F)nc32)c(C(N)=O)c1N` [Compound 560], the 50% inhibitory concentration (IC50) was determined as 7040 nM.
For `Cc1ccc2[nH]ncc2c1-c1nc(-c2cccnc2NC2CCN(C)C2=O)nc(C(N)=O)c1N` (stereo not drawn) [Compound 561], the concentration for half-maximal inhibition (IC50) stood at 426 nM.
In the case of `Cc1ccc2[nH]ncc2c1-c1nc(-c2cccnc2Nc2ccncc2)nc(C(N)=O)c1N` [Compound 562], the half-inhibitory concentration (IC50) came out at 24 nM.
Next, `Cc1ccnnc1Nc1ncccc1-c1nc(C(N)=O)c(N)c(-c2c(C)ccc3[nH]ncc23)n1` [Compound 563]: 38 nM; `Cc1cc(Nc2cc(F)ccc2-c2nc(C(N)=O)c(N)c(-c3c(C)ccc4[nH]ncc34)n2)ccn1` [Compound 564]: 15 nM.
Regarding `Cc1ccnc(Nc2ncccc2-c2nc(C(N)=O)c(N)c(-c3c(C)ccc4[nH]ncc34)n2)n1` [Compound 565, 5-amino-6-(5-methyl-1H-indazol-4-yl)-2-(2-((4-methylpyrimidin-2-yl)amino)pyridin-3-yl)pyrimidine-4-carboxamide], the half-inhibitory concentration (IC50) is 71 nM.
On to `COc1cnnc(Nc2cc(F)ccc2-c2nc(C(N)=O)c(N)c(-c3c(C)ccc4[nH]ncc34)n2)c1` [Compound 566], for which the IC50 is 76 nM.
Next, `Cc1cc(C)nc(Nc2cc(F)ccc2-c2nc(C(N)=O)c(N)c(-c3c(C)ccc4[nH]ncc34)n2)n1` [Compound 567]: 389 nM; `Cc1nc(F)cc(Nc2cc(F)ccc2-c2nc(C(N)=O)c(N)c(-c3c(C)ccc4[nH]ncc34)n2)n1` [Compound 568]: 15 nM; `Cc1ccc2[nH]ncc2c1-c1cc2c(oc3ccc(OCc4cccnc4)nc32)c(C(N)=O)c1N` [Compound 569, 7-amino-8-(5-methyl-1H-indazol-4-yl)-2-(pyridin-3-ylmethoxy)benzofuro[3,2-b]pyridine-6-carboxamide]: 712 nM.
As to `COc1ccnc(Nc2cc(F)ccc2-c2nc(C(N)=O)c(N)c(-c3c(C)ccc4[nH]ncc34)n2)n1` [Compound 570], the IC50 was determined as 111 nM.
Next, `Cc1ccc2[nH]ncc2c1-c1nc(-c2cc(F)ccc2NS(=O)(=O)C2CCC2)nc(C(N)=O)c1N` [Compound 571]: 283 nM; `Cc1ccc2[nH]ncc2c1-c1nc(-c2ccc(F)cc2Nc2nccc(C(F)(F)F)n2)nc(C(N)=O)c1N` [Compound 572]: 764 nM; `Cc1ccc2[nH]ncc2c1-c1nc(-c2cncnc2NCC(F)(F)F)nc(C(N)=O)c1N` [Compound 573]: 182 nM.
Next, `Cc1ccc2[nH]ncc2c1-c1cc2c(oc3ccc(O[C@H]4CCOC4)nc32)c(C(N)=O)c1N` [Compound 574]: 1330 nM; `Cc1ccc2[nH]ncc2c1-c1cc2c(oc3ccc(NC4CCOCC4)nc32)c(C(N)=O)c1N` [Compound 575]: 24 nM; `Cc1ccc2[nH]ncc2c1-c1nc(-c2ccc(F)cc2Nc2nccc(C(C)(C)C)n2)nc(C(N)=O)c1N` [Compound 576]: 4580 nM.
On to `Cc1ccc2[nH]ncc2c1-c1nc(-c2ccc(F)cc2Nc2nccc(N3CCOCC3)n2)nc(C(N)=O)c1N` [Compound 577], for which the IC50 was 702 nM.
Take `Cc1cc(Nc2cc(F)ccc2-c2nc(C(N)=O)c(N)c(-c3c(C)ccc4[nH]ncc34)n2)nc(C)n1` [Compound 578]: the IC50 was found to be 150 nM.
